Experimental data taken from article PMC8838415, “Discovery of Novel Pleuromutilin Derivatives as Potent Antibacterial Agents for the Treatment of MRSA Infection” (Molecules, 2022).
Converted amounts (≈) assume the structure as drawn.

Columns and labels:
[1] = tested on: methicillin-resistant S. aureus (ATCC 43300); test: MIC and MBC, broth dilution, MRSA ATCC 43300; format: cell-based; conditions: Staphylococcus aureus
Description: (§1) The synthesized pleuromutilin derivatives 8–30 were tested against four Gram-positive bacteria (MRSA ATCC 43300, S. aureus ATCC 29213 and two clinical strains of S. aureus (AD3 and 144) isolated from Guangdong Province). Tiamulin was used as the positive control in this experiment.
(§2) MIC values were tested following our previous work. The derivatives were dissolved in an aqueous solution of 2.5% tween-80 and 2.5% DMSO to make a solution with a concentration of 1000 µg/mL. The solution was diluted 12 times with MH broth to give a concentration range of 32–0.01 µg/mL. The bacteria (5 × 10^5 CFU/mL) were added in each well. For each compound concentration, three parallel experiments were set. The 96-well plate was incubated for 22–26 h at 37 °C. The MIC value was recorded as the minimal concentration that inhibits the visible growth of tested bacteria completely.
(§3) The MBC of these pleuromutilin derivatives were tested according to a previously reference. […] Then, the values of MBC were determined by laying 100 μL aliquots from the wells onto the MH agar plates without visible growth. The MH agar plate was cultured for a further 22–26 h at 37 °C.

S. aureus (ATCC 29213) = test: MIC and MBC, broth dilution, S. aureus ATCC 29213; format: cell-based; conditions: Staphylococcus aureus, ATCC29213
Description: as §1, §2, §3

S. aureus (AD3) = test: MIC and MBC, broth dilution, S. aureus AD3; format: cell-based; conditions: Staphylococcus aureus; S. aureus AD3 (clinical strain)
Description: as §1, §2, §3

S. aureus (144) = test: MIC and MBC, broth dilution, S. aureus 144; format: cell-based; conditions: Staphylococcus aureus; S. aureus 144 (clinical strain)
Description: as §1, §2, §3

50S ribosome = test: SPR interaction and affinity analysis; format: binding, S. aureus ATCC 43300; conditions: 4 °C; for Avg kd / Avg ka: 1:1 Langmuir binding; for Kd: KD = Kd/Ka
Description: S. aureus ATCC 43300 was used to prepare the 50S ribosomal subunit the same way as described previously. Cells were grown overnight in Brain Heart Infusion broth at 37 °C and harvested for 1.5 h at an OD600. Cells were washed with 10 mM Tris-HCl twice at pH = 7.5, and resuspended in 5 mL buffer A (20 mM HEPES-HCl pH = 7.5, 21 mM Mg(OAc)2, 100 mM NH4Cl, 1 mM DTT, 1 mM EDTA). Cells were broken by an ultrasound crusher. The lysate was centrifuged for 90 min at 20,000× g to clear cell debris.
The solution was layered on a sucrose cushion of 15 mL (10 mM Hepes-KOH pH 7.5, 25 mM Mg(OAc)2, 500 mM KCl, […], 1 mM DTT, 0.5 mM EDTA). Centrifugation was carried out for 15 h at 45,000 rpm using an ultracentrifuge Beckman (Beckman Coulter, Shanghai, China), Type 70Ti rotor. The crude ribosome pellet was resuspended in buffer E (10 mM Hepes-KOH pH 7.5, 10 mM Mg(OAc)2, 100 mM KCl, 1 mM DTT, 0.5 mM EDTA), then layered on 9 mL of 7–30% sucrose gradient and centrifuged in an ultracentrifuge Beckman, type SW40Ti rotor at 17,100 rpm for 15 h. The gradient was analyzed on the AKTA explorer system (Amersham, UK). The fractions corresponding to the 50S ribosomal subunit were collected and further subjected to precipitation by PEG 20,000. The 50S ribosomal subunit pellet was gently dissolved in 200 µL of storage buffer (10 mM HEPES-HCl pH = 7.5, 10 mM Mg(OAc)2, 15 mM KCl, 60 mM NH4Cl, 1 mM DTT) and stored at −80 °C.
SPR affinity analysis was performed on the bScreen LB 991 Label-free Microarray System (Berthold Technologies, Black Forest, Germany) at 4 °C and Biodot AD-1520 Array Printer (BIODOT Inc., Irvine, CA, USA) with a Photo-cross-linker SensorCHIP™. Concentrations of each compound were diluted to 100 μM with DMSO as the printing working solution for immobilization. A Biodot AD-1520 Array Printer (BIODOT Inc., CA, USA) was used to control the photo-cross-linker sensor chip and print samples. Each sample was printed four times. In order to check the chip quality and check whether the detection system works, DMSO was used as a system-negative control and rapamycin as a positive control. All positive control dots were divided into four groups and printed on the four corners of the sensor chip. The sensor chip was dried in vacuum after the array print and quickly transferred to a spectra radiator for a photo cross-linking reaction. The sensor chip was washed with C2H5OH, DMF and H2O in turn and evaporated in a N2 atmosphere for 15 min. Then, the Flowcell Cover were assembled.
The 50S ribosome was diluted separately to 200 nM, 400 nM, 800 nM, 1600 nM and 3200 nM with PBST (pH = 7.4, 0.1% Tween 20). Different concentrations of ribosome solutions were injected at a flow rate of 0.5 μL⋅s^−1 for 600 s at the associating stage at 4 °C, followed by PBST at a flow rate of 0.5⋅μL·s^−1 for 360 s at each dissociating stage. Then, the surface was regenerated with Glycine-HCl (pH = 2.0) at a flow rate of 2⋅μL·s^−1 for 300 s.
The raw data of the binding process of compounds and the 50S ribosome were recorded in real time. We compared the response unit (RU) of surface resonance to determine the different binding affinity between each sample dot. The process and analysis of association rate constants (Ka) and dissociation rate constants (Kd) and the equilibrium dissociation constant (KD, Kd/Ka) were performed using the data analysis software of the bScreen LB 991 Label-free Microarray System according to a single-site binding model (1:1 Langmuir binding) with mass transfer limitations for binding kinetics determination.

Compound	MBC [1]	MIC [1]	MBC (S. aureus (ATCC 29213))	MIC (S. aureus (ATCC 29213))	MBC (S. aureus (AD3))	MIC (S. aureus (AD3))	MBC (S. aureus (144))	MIC (S. aureus (144))	Avg kd (50S ribosome)	Kd (50S ribosome)	melting point	Avg ka (50S ribosome)
C=C[C@]1(C)C[C@@H](OC(=O)CNc2cccc(F)c2)[C@]2(C)[C@H](C)CC[C@]3(CCC(=O)[C@H]32)[C@@H](C)[C@@H]1O [Compound 8]	0.12 µg/mL (≈ 0.254 µM)	0.03 µg/mL (≈ 0.0636 µM)	0.25 µg/mL (≈ 0.53 µM)	0.12 µg/mL (≈ 0.254 µM)	0.5 µg/mL (≈ 1.06 µM)	0.12 µg/mL (≈ 0.254 µM)	0.5 µg/mL (≈ 1.06 µM)	0.25 µg/mL (≈ 0.53 µM)	–	–	–	–
C=C[C@]1(C)C[C@@H](OC(=O)CNc2cccc(Cl)c2)[C@]2(C)[C@H](C)CC[C@]3(CCC(=O)[C@H]32)[C@@H](C)[C@@H]1O [Compound 10, 22-(3-Chloroanilineyl)-22-deoxypleuromutilin]	0.12 µg/mL (≈ 0.246 µM)	0.12 µg/mL (≈ 0.246 µM)	0.25 µg/mL (≈ 0.512 µM)	0.12 µg/mL (≈ 0.246 µM)	0.5 µg/mL (≈ 1.02 µM)	0.125 µg/mL (≈ 0.256 µM)	0.5 µg/mL (≈ 1.02 µM)	0.25 µg/mL (≈ 0.512 µM)	0.00224 s⁻¹	26 µM	158 to 160 °C	–
C=C[C@]1(C)C[C@@H](OC(=O)CNc2ccc(Cl)cc2)[C@]2(C)[C@H](C)CC[C@]3(CCC(=O)[C@H]32)[C@@H](C)[C@@H]1O [Compound 11, 22-(4-Chloroanilineyl)-22-deoxypleuromutilin]	0.25 µg/mL (≈ 0.512 µM)	0.12 µg/mL (≈ 0.246 µM)	1 µg/mL (≈ 2.05 µM)	0.5 µg/mL (≈ 1.02 µM)	1 µg/mL (≈ 2.05 µM)	0.25 µg/mL (≈ 0.512 µM)	2 µg/mL (≈ 4.1 µM)	1 µg/mL (≈ 2.05 µM)	0.0019 s⁻¹	51.8 µM	94 to 95 °C	–
C=C[C@]1(C)C[C@@H](OC(=O)CNc2cccc(Br)c2)[C@]2(C)[C@H](C)CC[C@]3(CCC(=O)[C@H]32)[C@@H](C)[C@@H]1O [Compound 12, 22-(3-Bromoanilineyl)-22-deoxypleuromutilin]	0.25 µg/mL (≈ 0.469 µM)	0.12 µg/mL (≈ 0.225 µM)	0.5 µg/mL (≈ 0.939 µM)	0.25 µg/mL (≈ 0.469 µM)	1 µg/mL (≈ 1.88 µM)	0.25 µg/mL (≈ 0.469 µM)	2 µg/mL (≈ 3.76 µM)	1 µg/mL (≈ 1.88 µM)	6.25e-05 s⁻¹	1.53 µM	161 to 163 °C	–
C=C[C@]1(C)C[C@@H](OC(=O)CNc2ccc(Br)cc2)[C@]2(C)[C@H](C)CC[C@]3(CCC(=O)[C@H]32)[C@@H](C)[C@@H]1O [Compound 13, 22-(4-Bromoanilineyl)-22-deoxypleuromutilin]	0.12 µg/mL (≈ 0.225 µM)	0.12 µg/mL (≈ 0.225 µM)	0.25 µg/mL (≈ 0.469 µM)	0.25 µg/mL (≈ 0.469 µM)	1 µg/mL (≈ 1.88 µM)	0.25 µg/mL (≈ 0.469 µM)	1 µg/mL (≈ 1.88 µM)	0.5 µg/mL (≈ 0.939 µM)	0.197 s⁻¹	6350 µM	97 to 98 °C	–
C=C[C@]1(C)C[C@@H](OC(=O)CNCc2ccccc2F)[C@]2(C)[C@H](C)CC[C@]3(CCC(=O)[C@H]32)[C@@H](C)[C@@H]1O [Compound 14, 22-(2-Fluorobenzylamineyl)-22-deoxypleuromutilin]	2 µg/mL (≈ 4.12 µM)	1 µg/mL (≈ 2.06 µM)	8 µg/mL (≈ 16.5 µM)	4 µg/mL (≈ 8.24 µM)	8 µg/mL (≈ 16.5 µM)	2 µg/mL (≈ 4.12 µM)	8 µg/mL (≈ 16.5 µM)	4 µg/mL (≈ 8.24 µM)	0.065 s⁻¹	424 µM	163 to 164 °C	153 M⁻¹ s⁻¹
C=C[C@]1(C)C[C@@H](OC(=O)CNCc2cccc(F)c2)[C@]2(C)[C@H](C)CC[C@]3(CCC(=O)[C@H]32)[C@@H](C)[C@@H]1O [Compound 15, 22-(3-Fluorobenzylamineyl)-22-deoxypleuromutilin]	2 µg/mL (≈ 4.12 µM)	1 µg/mL (≈ 2.06 µM)	8 µg/mL (≈ 16.5 µM)	4 µg/mL (≈ 8.24 µM)	8 µg/mL (≈ 16.5 µM)	2 µg/mL (≈ 4.12 µM)	16 µg/mL (≈ 32.9 µM)	8 µg/mL (≈ 16.5 µM)	0.00432 s⁻¹	2.21 µM	143 to 144 °C	1960 M⁻¹ s⁻¹
C=C[C@]1(C)C[C@@H](OC(=O)CNCc2ccc(F)cc2)[C@]2(C)[C@H](C)CC[C@]3(CCC(=O)[C@H]32)[C@@H](C)[C@@H]1O [Compound 16, 22-(4-Fluorobenzylamineyl)-22-deoxypleuromutilin]	8 µg/mL (≈ 16.5 µM)	4 µg/mL (≈ 8.24 µM)	32 µg/mL (≈ 65.9 µM)	16 µg/mL (≈ 32.9 µM)	16 µg/mL (≈ 32.9 µM)	8 µg/mL (≈ 16.5 µM)	32 µg/mL (≈ 65.9 µM)	16 µg/mL (≈ 32.9 µM)	0.00929 s⁻¹	4560 µM	76 to 77 °C	2.04 M⁻¹ s⁻¹
C=C[C@]1(C)C[C@@H](OC(=O)CNCCc2ccccc2)[C@]2(C)[C@H](C)CC[C@]3(CCC(=O)[C@H]32)[C@@H](C)[C@@H]1O [Compound 17, 22-(2-PhenylethylaMineyl)-22-deoxypleuromutilin]	1 µg/mL (≈ 2.08 µM)	1 µg/mL (≈ 2.08 µM)	8 µg/mL (≈ 16.6 µM)	2 µg/mL (≈ 4.15 µM)	8 µg/mL (≈ 16.6 µM)	2 µg/mL (≈ 4.15 µM)	4 µg/mL (≈ 8.3 µM)	4 µg/mL (≈ 8.3 µM)	0.00963 s⁻¹	4690 µM	73 to 75 °C	2.05 M⁻¹ s⁻¹
C=C[C@]1(C)C[C@@H](OC(=O)CNCCc2ccccc2C)[C@]2(C)[C@H](C)CC[C@]3(CCC(=O)[C@H]32)[C@@H](C)[C@@H]1O [Compound 18, 22-(2-Methylphenethylamineyl)-22-deoxypleuromutilin]	2 µg/mL (≈ 4.03 µM)	1 µg/mL (≈ 2.02 µM)	8 µg/mL (≈ 16.1 µM)	2 µg/mL (≈ 4.03 µM)	16 µg/mL (≈ 32.3 µM)	4 µg/mL (≈ 8.07 µM)	4 µg/mL (≈ 8.07 µM)	4 µg/mL (≈ 8.07 µM)	0.00445 s⁻¹	33.2 µM	91 to 93 °C	134 M⁻¹ s⁻¹
C=C[C@]1(C)C[C@@H](OC(=O)CNCCCc2ccccc2)[C@]2(C)[C@H](C)CC[C@]3(CCC(=O)[C@H]32)[C@@H](C)[C@@H]1O [Compound 19, 22-(3-Phenylpropylamineyl)-22-deoxypleuromutilin]	2 µg/mL (≈ 4.03 µM)	1 µg/mL (≈ 2.02 µM)	4 µg/mL (≈ 8.07 µM)	2 µg/mL (≈ 4.03 µM)	4 µg/mL (≈ 8.07 µM)	1 µg/mL (≈ 2.02 µM)	8 µg/mL (≈ 16.1 µM)	4 µg/mL (≈ 8.07 µM)	0.000469 s⁻¹	0.151 µM	83 to 84 °C	3110 M⁻¹ s⁻¹
penicillin [reference compound]	–	–	–	–	–	–	–	–	0.515 s⁻¹	–	–	2.10 M⁻¹ s⁻¹
